Results: patent publication US20250230129A1, “POLYAMIDE COMPOUNDS, METHOD FOR PREPARING SAME, AND MEDICAL USE THEREOF” (priority 2022, published 2025)
Read-outs that look alike come from different tables or passages of the source. Square brackets hold non-standard residues; d marks the D form. Peptide text beside a SMILES is read from it. * marks the point of attachment. Piperidin1yl(4-NH2,4-COOH) = NC1(C(=O)O)CCN(*)CC1; dPhLac = O=C(O)[C@H](O)Cc1ccccc1; X4 = COC(=O)NC1CCN(*)CC1

Columns and labels:
μ receptor = μ receptor (Homo sapiens (Human), UniProt P35372); assay: μ receptor affinity assay (3H-DAMGO); assay type: binding
κ receptor = κ receptor (Homo sapiens (Human), UniProt P41145); assay: Competitive Kappa receptor binding assay (3H-U69593)
δ receptor = δ receptor (Homo sapiens (Human), UniProt P41143); assay: Competitive delta receptor binding assay (3H-DADLE)
[1] = target: κ-opioid receptor (Kappa) (Homo sapiens (Human), UniProt P41145); assay: In vitro functional assay, HTRF cAMP-Gi in CHO-K1-OPRK1 cells; assay type: cell-based
[2] = PK and blood-brain barrier permeability in mice; assay type: in vivo; conditions: male ICR mice, intravenous 1 mg/kg
Protocol: The compounds of the present disclosure were investigated for pharmacokinetic characteristics and blood-brain barrier permeability in mice.
Healthy male ICR mice were randomly grouped, 6 animals per group. For each test compound, 3 groups of animals were used. The first group of animals was used for collecting blood and brain 5 min after the administration, and the second group of animals and the third group of animals were used for cross blood collection at subsequent time points; each test compound was intravenously administered (1 mg/kg) to corresponding groups of mice, and blood sampling via submaxillary veins of the mice was carried out at different time points. Drug contents in plasma and brain tissues at different time points were measured by an LC-MS/MS method, the brain-to-blood ratio B/P was calculated by using EXCEL software, and pharmacokinetic parameters were calculated by using DAS3.0 software.

[3] = read-out: In vitro agonistic effects on k-opioid receptors EC50
[4] = CHO-K1-μ membranes, 3H-DAMGO 2 nM, read-out: μ receptor Ki
[5] = CHO-K1-Kappa membranes, 3H-U69593 2 nM, read-out: κ receptor Ki
[6] = CHO-K1-delta membranes, 3H-DADLE 4 nM, read-out: δ receptor Ki
[7] = CHO-K1-OPRK1 cells, cAMP, 1 μM Forskolin, read-out: In vitro agonistic effects on k-opioid receptors EC50

| Molecule | Ki (μ receptor) [nM] | Ki (κ receptor) [nM] | Ki (δ receptor) [nM] | EC50 [1] [nM] | other results |
| --- | --- | --- | --- | --- | --- |
| CC(C)C[C@@H](NC(=O)[C@@H](Cc1ccccc1)NC(=O)N(CCN)Cc1cncnc1)C(=O)C[C@H](CCCCN)C(=O)N1CCC(N)(C(=O)O)CC1 [Compound 19] | – | – | – | – | Ki (μ receptor; read-out: μ receptor Ki): > 1000 nM; Ki (κ receptor; read-out: κ receptor Ki): 0.9 nM; Ki (δ receptor; read-out: δ receptor Ki): > 1000 nM; EC50 [1, 3]: 0.87 nM |
| CC(C)C[C@@H](NC(=O)[C@@H](Cc1ccccc1)NC(=O)N(C)C(CN)c1ccccc1)C(=O)N[C@H](CCCCN)C(=O)N1CCC(NC(=O)OC2CCOCC2)CC1 (stereo partly drawn) [Compound 33] | > 1000 | 0.56 | > 1000 | 0.81 | – |
| CC(C)C[C@@H](NC(=O)[C@@H](Cc1ccccc1)NC(=O)N(CCN)Cc1ccccc1)C(=O)N[C@H](CCCCN)C(=O)N1CCC(NC(=O)OC2CCOCC2)CC1 [Compound 24] | > 1000 | 0.36 | > 1000 | 0.27 | – |
| CNCCN(Cc1ccccc1)C(=O)N[C@H](Cc1ccccc1)C(=O)N[C@H](CC(C)C)C(=O)C[C@H](CCCCN)C(=O)N1CCC(N)(C(=O)O)CC1 [Compound 28] | – | – | – | – | Ki (μ receptor; read-out: μ receptor Ki): > 1000 nM; Ki (κ receptor; read-out: κ receptor Ki): 3.31 nM; Ki (δ receptor; read-out: δ receptor Ki): > 1000 nM |
| CC(C)C[C@@H](NC(=O)[C@@H](Cc1ccccc1)NC(=O)N(CCN)Cc1cccnc1)C(=O)C[C@H](CCCCN)C(=O)N1CCC(N)(C(=O)O)CC1 [Compound 18] | – | – | – | – | Ki (μ receptor; read-out: μ receptor Ki): > 1000 nM; Ki (κ receptor; read-out: κ receptor Ki): 0.21 nM; Ki (δ receptor; read-out: δ receptor Ki): > 1000 nM; EC50 [1, 3]: 0.18 nM |
| CN=S1(=O)CCN(C(=O)[C@@H](CCCCN)NC(=O)[C@@H](CC(C)C)NC(=O)[C@@H](Cc2ccccc2)NC(=O)N(CCN)Cc2ccccc2)CC1 [Compound 20] | > 1000 | 0.58 | > 1000 | 0.52 | – |
| CC(C)C[C@@H](NC(=O)[C@@H](Cc1ccccc1)NC(=O)[C@H](O)Cc1ccccc1)C(=O)N[C@H](CCCCN)C(=O)N1CCC(N)(C(=O)O)CC1 [Compound 3] (H-[dPhLac][dF][dL][dK]-{Piperidin1yl(4-NH2,4-COOH)}) | > 1000 | 3.31 | > 1000 | – | – |
| COC(=O)NC1CCN(C(=O)[C@@H](C)NC(=O)[C@@H](CC(C)C)NC(=O)[C@@H](Cc2ccccc2)NC(=O)N(CCN)Cc2ccccc2)CC1 [Compound 42] | > 1000 | 0.47 | > 1000 | 0.46 | – |
| COC(=O)N=S1(=O)CCN(C(=O)[C@@H](CCCCN)NC(=O)[C@@H](CC(C)C)NC(=O)[C@@H](Cc2ccccc2)NC(=O)[C@H](N)Cc2ccccc2)CC1 [Compound 4B] | > 1000 | 1.88 | > 1000 | 0.65 | – |
| COC(=O)NC1CCN(C(=O)[C@@H](C)NC(=O)[C@@H](CC(C)C)NC(=O)[C@@H](Cc2ccccc2)NC(=O)[C@H](N)Cc2ccccc2)CC1 [Compound 12A] (H-[dF][dF][dL][dA]-X4) | > 1000 | 0.34 | > 1000 | 0.07 | – |
| CC(C)C[C@@H](NC(=O)[C@@H](Cc1ccccc1)NC(=O)[C@H](N)Cc1ccccc1)C(=O)N[C@H](CCCCN)C(=O)N1CCC(N)(C(=O)O)CC1 [CR845, D-Phe-D-Phe-D-Leu-D-Lys-[ω(4-aminopiperidine-4-carboxylic acid)]-OH, reference compound] | – | – | – | – | B/P (brain-to-blood ratio) ([2]; blood and brain 5 min after administration): 0.015; AUC(0-inf) ([2]; mouse, plasma): 653 ng·h/mL; Vd ([2]; mouse, plasma): 0.6 L/kg; clearance ([2]; mouse, plasma): 27 mL/min/kg; half-life ([2]; mouse, plasma, read-out: t½ (converted)): 15.6 min; Cmax ([2]; mouse, plasma): 1620 ng/mL |
| CC(C)C[C@@H](NC(=O)[C@@H](Cc1ccccc1)NC(=O)N(CCN)Cc1ccccc1)C(=O)N[C@H](CCCCN)C(=O)N1CCOCC1 [Compound 39] | > 1000 | 0.27 | > 1000 | 0.35 | – |
| CC(C)C[C@@H](NC(=O)[C@@H](Cc1ccccc1)NC(=O)N(CCN)Cc1ccc(F)cc1)C(=O)C[C@H](CCCCN)C(=O)N1CCC(N)(C(=O)O)CC1 [Compound 50] | – | – | – | – | Ki (μ receptor; read-out: μ receptor Ki): > 1000 nM; Ki (κ receptor; read-out: κ receptor Ki): 0.27 nM; Ki (δ receptor; read-out: δ receptor Ki): > 1000 nM; EC50 [1, 3]: 0.43 nM |
| CC(C)C[C@@H](NC(=O)[C@@H](Cc1ccccc1)NC(=O)N(C)C(CN)c1ccccc1)C(=O)C[C@H](CCCCN)C(=O)N1CCC(N)(C(=O)OC(C)C)CC1 (stereo partly drawn) [Compound 15] | – | – | – | – | Ki (μ receptor; read-out: μ receptor Ki): > 1000 nM; Ki (κ receptor; read-out: κ receptor Ki): 0.83 nM; Ki (δ receptor; read-out: δ receptor Ki): > 1000 nM; EC50 [1, 3]: 0.63 nM |
| CC(C)C[C@@H](NC(=O)[C@@H](Cc1ccccc1)NC(=O)N(CCN)CC1CC1)C(=O)N[C@H](CCCCN)C(=O)N1CCC(N)(C(=O)O)CC1 [Compound 48] | > 1000 | 3.79 | > 1000 | 12 | – |
| CNS(=O)(=O)NC1CCN(C(=O)[C@@H](CCCCN)NC(=O)[C@@H](CC(C)C)NC(=O)[C@@H](Cc2ccccc2)NC(=O)N(CCN)Cc2ccccc2)CC1 [Compound 26] | – | – | – | – | Ki (μ receptor; [4]): > 1000 nM; Ki (κ receptor; [5]): 0.31 nM; Ki (δ receptor; [6]): > 1000 nM; EC50 [1, 7]: 0.25 nM |

| Molecule | Ki (μ receptor) [nM] | Ki (κ receptor) [nM] | Ki (δ receptor) [nM] | EC50 [1] [nM] | other results |
| --- | --- | --- | --- | --- | --- |
| CC(C)C[C@@H](NC(=O)[C@@H](Cc1ccccc1)NC(=O)N(CCN)Cc1ccccc1)C(=O)N[C@H](CCCCN)C(=O)N1CCC2(CC1)OC(=O)Nc1ncccc12 [Compound 22] | – | – | – | – | Ki (μ receptor; [4]): > 1000 nM; Ki (κ receptor; [5]): 0.35 nM; Ki (δ receptor; [6]): > 1000 nM; EC50 [1, 7]: 0.36 nM |
| CC(C)C[C@@H](NC(=O)[C@@H](Cc1ccccc1)NC(=O)C[C@H](N)c1ccccc1)C(=O)N[C@H](CCCCN)C(=O)N1CCC(N)(C(=O)O)CC1 [Compound 4-100, 4-amino-1-[(2R)-6-amino-2-[(2R)-2-[(2R)-2-[(3S)-3-amino-3-phenylpropionylamino]-3-phenylpropionylamino]-4-methylpentanoylamino]hexanoyl]piperidine-4-carboxylic acid] | > 1000 | 59.9 | > 1000 | – | – |
| CC(C)C[C@@H](NC(=O)[C@@H](Cc1ccccc1)NC(=O)N(C)C(CN)c1ccccc1)C(=O)N[C@H](CCCCN)C(=O)N1CCOCC1 (stereo partly drawn) [Compound 37] | > 1000 | 0.41 | > 1000 | 0.39 | – |
| CC(C)C[C@@H](NC(=O)[C@@H](Cc1ccccc1)NC(=O)N(C)C(CN)c1ccccc1)C(=O)N[C@H](CCCCN)C(=O)N1CCNCC1 (stereo partly drawn) [Compound 38] | > 1000 | 0.17 | > 1000 | 0.54 | – |
| CC(=O)N1CCN(C(=O)[C@@H](CCCCN)NC(=O)[C@@H](CC(C)C)NC(=O)[C@@H](Cc2ccccc2)NC(=O)N(CCN)Cc2ccccc2)CC1 [Compound 47] | > 1000 | 0.49 | > 1000 | 0.24 | – |
| COC(=O)N1CCN(C(=O)[C@@H](CCCCN)NC(=O)[C@@H](CC(C)C)NC(=O)[C@@H](Cc2ccccc2)NC(=O)N(CCN)Cc2ccccc2)CC1 [Compound 46] | > 1000 | 0.29 | > 1000 | 0.22 | – |
| CC(=O)N(CCCN)C1CCN(C(=O)[C@@H](C)CC(=O)[C@@H](CC(C)C)NC(=O)[C@H](CC(=O)N(CCN)Cc2ccccc2)Cc2ccccc2)CC1 [Compound 44] | – | – | – | – | Ki (μ receptor; read-out: μ receptor Ki): > 1000 nM; Ki (κ receptor; read-out: κ receptor Ki): 0.55 nM; Ki (δ receptor; read-out: δ receptor Ki): > 1000 nM; EC50 [1, 3]: 0.09 nM |
| CC(C)C[C@@H](NC(=O)[C@@H](Cc1ccccc1)NC(=O)N(CCN)Cc1ccccc1)C(=O)N[C@H](CCCCN)C(=O)N1CCC(C#N)CC1 [Compound 35] | > 1000 | 0.18 | > 1000 | 0.17 | – |
| (2R)-2-[(2R)-2-{[(2-amino-1-phenylethyl)(methyl)carbamoyl)amino}-3-phenylpropionylamino]-N-[(2R)-6-amino-1-{4-[(methylcarbamoyl)amino]piperidin-1-yl}-1-oxohexyl-2-yl]-4-methylpentanamide [Compound 8] | – | – | – | – | Ki (μ receptor; read-out: μ receptor Ki): > 1000 nM; Ki (κ receptor; read-out: κ receptor Ki): 0.09 nM; Ki (δ receptor; read-out: δ receptor Ki): > 1000 nM; EC50 [1, 3]: 0.9 nM |
| CC(C)C[C@@H](NC(=O)[C@@H](Cc1ccccc1)NC(=O)N(CCN)Cc1ccccc1)C(=O)N[C@H](CCCCN)C(=O)N1CCNCC1 [Compound 40] | > 1000 | 0.58 | > 1000 | 0.13 | – |
| CC(=O)NC1CCN(C(=O)[C@@H](CCCCN)NC(=O)[C@@H](CC(C)C)NC(=O)[C@@H](Cc2ccccc2)NC(=O)N(CCN)Cc2ccccc2)CC1 [Compound 45] | > 1000 | 0.52 | > 1000 | 0.16 | – |
| CC(C)C[C@@H](NC(=O)[C@@H](Cc1ccccc1)NC(=O)N(C)C(CN)c1ccccc1)C(=O)N[C@H](CCCCN)C(=O)N1CCC2(CC1)CNC(=O)c1ncccc12 (stereo partly drawn) [Compound 32] | > 1000 | 0.58 | > 1000 | 0.65 | – |
| COC(=O)C1(N)CCN(C(=O)[C@@H](CCCCN)NC(=O)[C@@H](CC(C)C)NC(=O)[C@@H](Cc2ccccc2)NC(=O)N(C)C(CN)c2ccccc2)CC1 (stereo partly drawn) [Compound 14] | > 1000 | 1.1 | > 1000 | 8.2 | – |
| CC(C)C[C@@H](NC(=O)[C@@H](Cc1ccccc1)NC(=O)N(CCN)Cc1ccccc1)C(=O)N[C@H](CCCCN)C(=O)N1CCC(F)(C(=O)O)CC1 [Compound 34] | > 1000 | 0.6 | > 1000 | 0.71 | – |
| CC(C)C[C@@H](NC(=O)[C@@H](Cc1ccccc1)NC(=O)N(C)C(CN)c1ccccc1)C(=O)N[C@H](CCCCN)C(=O)N1CCS(=O)(=O)CC1 (stereo partly drawn) [Compound 36] | > 1000 | 0.98 | > 1000 | 0.35 | – |
